# US10604554B2, “Double-acylated GLP-1 derivatives” (Novo Nordisk A/S, priority 2012, dated 2020)
# Read-outs that look alike come from different tables or passages of the source.
# Assays:
# human GLP-1 receptor [1] = molecular target: T1, human GLP-1 receptor (Homo sapiens, UniProt P43220); experiment: In vitro potency (CRE luciferase; whole cells); type: cell-based; set-up: EC50/pM (ratio 1% HSA/0% HSA): unit not given here; conditions: for EC50: BHK cells
# T1 construct: expressed in transfected cells; host or cells: BHK cells, clone FCW467-12A/KZ10-1 (parent line BHKTS13), further transfected with CRE luciferase
# T1 sequence (P43220 24-463): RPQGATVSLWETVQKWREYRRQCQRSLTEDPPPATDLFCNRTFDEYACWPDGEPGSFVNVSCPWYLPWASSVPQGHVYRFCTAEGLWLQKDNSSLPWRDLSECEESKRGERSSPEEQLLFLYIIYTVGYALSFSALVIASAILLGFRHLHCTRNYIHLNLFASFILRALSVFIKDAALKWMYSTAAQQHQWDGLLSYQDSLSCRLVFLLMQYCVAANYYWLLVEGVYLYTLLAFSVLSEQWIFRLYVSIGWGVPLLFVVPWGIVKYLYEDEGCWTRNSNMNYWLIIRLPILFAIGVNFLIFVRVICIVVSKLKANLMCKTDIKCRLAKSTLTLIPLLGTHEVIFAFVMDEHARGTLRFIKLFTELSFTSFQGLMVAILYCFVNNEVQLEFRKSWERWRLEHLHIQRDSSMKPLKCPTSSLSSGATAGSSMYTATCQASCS
# How it was run: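 Stably transfected BHK cells carrying human GLP-1R and a CRE–firefly luciferase reporter, 5×10^3 cells/well in assay medium, run with 0% or 1% HSA in assay buffer.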
# human GLP-1 receptor [2] = molecular target: T1, human GLP-1 receptor; experiment: GLP-1 receptor binding (SPA, displacement of 125I-GLP-1)
# How it was run: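 Membranes from a stably transfected hamster cell line, 5-10 ug protein/sample, with WGA SPA beads and [125I]-GLP-1(7-36)NH2 at 0.06 nM final. Incubated 120 min at 30 °C with shaking, then counted.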
# in vivo [3] = conditions: male, Göttingen, minipig, iv
# Protocol: (§1) The purpose of this study is to determine the protraction in vivo of the GLP-1 derivatives after i.v. administration to minipigs, i.e. the prolongation of their time of action. This is done in a pharmacokinetic (PK) study, where the terminal half-life of the derivative in question is determined. By terminal half-life is generally meant the period of time it takes to halve a certain plasma concentration, measured after the initial distribution phase.
# (§2) Study A: Male Göttingen minipigs were obtained from Ellegaard Göttingen Minipigs (Dalmose, Denmark) approximately 7-14 months of age and weighing from approximately 16-35 kg were used in the studies. The minipigs were housed individually and fed restrictedly once or twice daily with SDS minipig diet (Special Diets Services, Essex, UK). After at least 2 weeks of acclimatisation two permanent central venous catheters were implanted in vena cava caudalis or cranialis in each animal. The animals were allowed 1 week recovery after the surgery, and were then used for repeated pharmacokinetic studies with a suitable wash-out period between successive GLP-1 derivative dosings.
# (§3) The animals were fasted for approximately 18 h before dosing and from 0 to 4 h after dosing, but had ad libitum access to water during the whole period.
# (§4) The GLP-1 derivatives were dissolved in 50 mM sodium phosphate, 145 mM sodium chloride, 0.05% tween 80, pH 7.4 to a concentration of usually from 20-60 nmol/ml. […] Blood samples (for example 0.8 ml) were collected in EDTA buffer (8 mM) and then centrifuged at 4° C. and 1942 G for 10 minutes.
# (§5) Study B: Male Göttingen minipigs were obtained from Ellegaard Göttingen Minipigs (Dalmose, Denmark) approximately 5 months of age and weighing from approximately 9 kg were used in the studies. The minipigs were housed in pens with straw as bedding, six together in each pen and fed restrictedly once or twice daily with Altromin 9023 minipig diet (Chr. Petersen A/S, DK-4100 Ringsted) or Standard SMP(E) minipig diet (Special Diet Services (SDS), UK). The pigs were used for repeated pharmacokinetic studies with a suitable wash-out period between successive GLP-1 derivative dosings.
# (§6) The GLP-1 derivatives were dissolved in 50 mM sodium phosphate, 145 mM sodium chloride, 0.05% tween 80, pH 7.4 to a concentration of usually from 20-60 nmol/ml. Intravenous injections (the volume corresponding to usually 2 nmol/kg, for example 0.1 ml/kg) of the compounds were given as intravenous injections via a Venflon inserted in an ear vein, while they are placed unanaesthetised in a sling. The dose volume was 0.1 ml/kg, and blood was sampled at predefined time points for up till 17 days post dosing (samples was taken with syringe from a jugular vein).
# (§7) Individual plasma concentration-time profiles were analyzed by a non-compartmental model in Phoenix WinNonLin ver. […] (Pharsight Inc., Mountain View, Calif., USA), and the resulting terminal half-lives (harmonic mean) determined.
# in vivo [4] = conditions: male, Sprague Dawley, rat, iv
# Protocol: (§8) The purpose of this Example is to investigate half-life in vivo in rat.
# (§9) In vivo pharmacokinetic studies in rats were performed with the GLP-1 derivatives of a number of the Example compounds, as described in the following.
# (§10) Male Sprague Dawley rats of same age with a body weight of approximately 400 g were obtained from Taconic (Denmark) and assigned to the treatments by simple randomisation on body weight, approximately 4 rats per group.
# (§11) The GLP-1 derivatives (approximately 6 nmol/ml) were dissolved in 50 mM sodium phosphate, 145 mM sodium chloride, 0.05% tween 80, pH 7.4. Intravenous injections (1.0 ml/kg) of the compounds were given with a syringe in the tail vein of conscious rats. Blood was sampled from vena sublingualis for 5 days post dosing. Blood samples (200 μl) were collected in EDTA buffer (8 mM) and then centrifuged at 4° C. and 10000 G for 5 minutes. Plasma samples were kept at −20° C. until analyzed for plasma concentration of the respective GLP-1 compound.
# (§12) The donor beads were coated with streptavidin, while acceptor beads were conjugated with a monoclonal antibody recognising a mid-/C-terminal epitope of the peptide. Another monoclonal antibody, specific for the N-terminus, was biotinylated. The three reactants were combined with the analyte and formed a two-sited immuno-complex. Illumination of the complex released singlet oxygen atoms from the donor beads, which were channeled into the acceptor beads and triggered chemiluminescence which was measured in an Envision plate reader. The amount of light was proportional to the concentration of the compound.
# (§13) Plasma concentration-time profiles were analyzed using Phoenix WinNonLin ver. 6.2, Pharsight Inc., Mountain View, Calif., USA), and the half-life (T1/2) calculated using individual plasma concentration-time profiles from each animal.
# [5] = Pharmacokinetic (PK) study in rat; conditions: male, Sprague Dawley, in vivo, iv, 6 nmol/kg
# Protocol: as §8, §9, §10, §11, §12, §13
# [6] = Pharmacokinetic (PK) study in minipig; conditions: male, Göttingen, in vivo, iv
# Protocol: as §1, §2, §3, §4, §5, §6, §7
# [7] = In vitro potency (CRE luciferase) EC50 (1% HSA), 1% HSA
# [8] = In vitro potency (CRE luciferase) EC50 (0% HSA), 0% HSA
# [9] = Receptor binding affinity IC50 (low HSA), 0.001% HSA (low albumin)
smiles,measurement,setting,value
"CC[C@H](C)[C@H](NC(=O)[C@H](Cc1ccccc1)NC(=O)[C@H](CCC(=O)O)NC(=O)[C@H](CCCCNC(=O)[C@@H](N)CCCCNC(=O)COCCOCCNC(=O)CC[C@H](NC(=O)CC[C@H](NC(=O)CCCCCCCCCCCCCCC(=O)O)C(=O)O)C(=O)O)NC(=O)[C@H](C)NC(=O)[C@H](C)NC(=O)[C@H](CCC(N)=O)NC(=O)CNC(=O)[C@H](CCC(=O)O)NC(=O)[C@H](CC(C)C)NC(=O)[C@H](Cc1ccc(O)cc1)NC(=O)[C@H](CO)NC(=O)[C@H](CO)NC(=O)[C@@H](NC(=O)[C@H](CC(=O)O)NC(=O)[C@H](CO)NC(=O)[C@@H](NC(=O)[C@H](Cc1ccccc1)NC(=O)[C@@H](NC(=O)CNC(=O)[C@H](CCC(=O)O)NC(=O)C(C)(C)NC(=O)[C@@H](N)Cc1c[nH]cn1)[C@@H](C)O)[C@@H](C)O)C(C)C)C(=O)N[C@@H](C)C(=O)N[C@@H](Cc1c[nH]c2ccccc12)C(=O)N[C@@H](CC(C)C)C(=O)N[C@H](C(=O)N[C@@H](CCCNC(=N)N)C(=O)NCC(=O)N[C@@H](CCCNC(=N)N)C(=O)N[C@@H](CCCCNC(=O)[C@@H](N)CCCCNC(=O)COCCOCCNC(=O)CC[C@H](NC(=O)CC[C@H](NC(=O)CCCCCCCCCCCCCCC(=O)O)C(=O)O)C(=O)O)C(=O)O)C(C)C [Example 11, N^ε26-[(2S)-2-amino-6-[[2-[2-[2-[[(4S)-4-carboxy-4-[[(4S)-4-carboxy-4-(15-carboxypentadecanoylamino)butanoyl]amino]butanoyl]amino]ethoxy]ethoxy]acetyl]amino]hexanoyl], N^ε37-[(2S)-2-amino-6-[[2-[2-[2-[[(4S)-4-carboxy-4-[[(4S)-4-carboxy-4-(15-carboxypentadecanoylamino)butanoyl]amino]butanoyl]amino]ethoxy]ethoxy]acetyl]amino]hexanoyl]-[Aib^8,Arg^34, Lys^37]-GLP-1-(7-37)-peptide]",EC50,"human GLP-1 receptor [1]; 0% HSA, read-out: In vitro potency (CRE luciferase) EC50 (0% HSA)",0.0073 nM
same,EC50,human GLP-1 receptor [1]; [7],1.57 nM
same,IC50,"human GLP-1 receptor [2]; 0.001% HSA (low albumin), read-out: Receptor binding affinity IC50 (low HSA)",0.74 nM
same,IC50 (high HSA),"human GLP-1 receptor [2]; Receptor binding affinity IC50 (high HSA), 2.0% HSA (high albumin), heading: Receptor binding affinity IC50",522 nM
same,half-life,in vivo [3],95 h
same,half-life,in vivo [4],28 h
CC[C@H](C)[C@H](NC(=O)[C@H](Cc1ccccc1)NC(=O)[C@H](CCC(=O)O)NC(=O)[C@H](CCCCNC(=O)[C@@H](N)CCCCNC(=O)COCCOCCNC(=O)COCCOCCNC(=O)CC[C@H](NC(=O)CCCCCCCCCCOc1ccc(C(=O)O)cc1)C(=O)O)NC(=O)[C@H](C)NC(=O)[C@H](C)NC(=O)[C@H](CCC(N)=O)NC(=O)[C@H](CCC(=O)O)NC(=O)[C@H](CCC(=O)O)NC(=O)[C@H](CC(C)C)NC(=O)[C@H](Cc1ccc(O)cc1)NC(=O)[C@H](CO)NC(=O)[C@H](CO)NC(=O)[C@@H](NC(=O)[C@H](CC(=O)O)NC(=O)[C@H](CO)NC(=O)[C@@H](NC(=O)[C@H](Cc1ccccc1)NC(=O)[C@@H](NC(=O)CNC(=O)[C@H](CCC(=O)O)NC(=O)C(C)(C)NC(=O)[C@@H](N)Cc1c[nH]cn1)[C@@H](C)O)[C@@H](C)O)C(C)C)C(=O)N[C@@H](C)C(=O)N[C@@H](Cc1c[nH]c2ccccc12)C(=O)N[C@@H](CC(C)C)C(=O)N[C@H](C(=O)N[C@@H](CCCNC(=N)N)C(=O)NCC(=O)N[C@@H](CCCNC(=N)N)C(=O)N[C@@H](CCCCNC(=O)[C@@H](N)CCCCNC(=O)COCCOCCNC(=O)COCCOCCNC(=O)CC[C@H](NC(=O)CCCCCCCCCCOc1ccc(C(=O)O)cc1)C(=O)O)C(=O)O)C(C)C [Example 22],EC50,human GLP-1 receptor [1]; [8],0.0055 nM
same,EC50/pM (ratio 1% HSA/0% HSA),human GLP-1 receptor [1]; ratio of EC50 at 1% HSA to EC50 at 0% HSA,13
same,IC50,human GLP-1 receptor [2]; [9],0.26 nM
same,half-life,[5],15 h
same,half-life,[6],59 h
"CC[C@H](C)[C@H](NC(=O)[C@H](Cc1ccccc1)NC(=O)[C@H](CCC(=O)O)NC(=O)[C@H](CCCCNC(=O)[C@H](CCCCNC(=O)[C@H](CCCCNC(=O)CC[C@H](NC(=O)CCCCCCCCCCOc1ccc(C(=O)O)cc1)C(=O)O)N(C)C)N(C)C)NC(=O)[C@H](C)NC(=O)[C@H](C)NC(=O)[C@H](CCC(N)=O)NC(=O)CNC(=O)[C@H](CCC(=O)O)NC(=O)[C@H](CC(C)C)NC(=O)[C@H](Cc1ccc(O)cc1)NC(=O)[C@H](CO)NC(=O)[C@H](CO)NC(=O)[C@@H](NC(=O)[C@H](CC(=O)O)NC(=O)[C@H](CO)NC(=O)[C@@H](NC(=O)[C@H](Cc1ccccc1)NC(=O)[C@@H](NC(=O)CNC(=O)[C@H](CCC(=O)O)NC(=O)C(C)(C)NC(=O)CCc1c[nH]cn1)[C@@H](C)O)[C@@H](C)O)C(C)C)C(=O)N[C@@H](C)C(=O)N[C@@H](Cc1c[nH]c2ccccc12)C(=O)N[C@@H](CC(C)C)C(=O)N[C@H](C(=O)N[C@@H](CCCNC(=N)N)C(=O)NCC(=O)N[C@@H](CCCNC(=N)N)C(=O)N[C@@H](CCCCNC(=O)[C@H](CCCCNC(=O)[C@H](CCCCNC(=O)CC[C@H](NC(=O)CCCCCCCCCCOc1ccc(C(=O)O)cc1)C(=O)O)N(C)C)N(C)C)C(=O)O)C(C)C [Example 29, N^ε26-[(2S)-6-[[(2S)-6-[[(4S)-4-carboxy-4-[11-(4-carboxyphenoxy)undecanoylamino]butanoyl]amino]-2-(dimethylamino)hexanoyl]amino]-2-(dimethylamino)hexanoyl], N^ε37-[(2S)-6-[[(2S)-6-[[(4S)-4-carboxy-4-[11-(4-carboxyphenoxy)undecanoylamino]butanoyl]amino]-2-(dimethylamino)hexanoyl]amino]-2-(dimethylamino)hexanoyl]-[Imp^7,Aib^8,Arg^34,Lys^37]-GLP-1-(7-37)-peptide]",EC50,human GLP-1 receptor [1]; [8],0.0079 nM
same,EC50,human GLP-1 receptor [1]; [7],0.427 nM
same,IC50,"human GLP-1 receptor [2]; Receptor binding affinity IC50 (high HSA), 2.0% HSA (high albumin)",56 nM
same,IC50,human GLP-1 receptor [2]; [9],0.55 nM
same,half-life,[5],19 h
same,half-life,[6],82 h
